# Experimental data as given in patent US12163953B2, “P-phenylene ethynylene compounds as bioactive and detection agents” (STC.UNM, priority 2014, dated 2024).
# Structures can show the parent of a compound that is named as a salt. Where two headings read alike, the source gives them in different places.
# What was measured:
# [1] = system: B. anthracis Sterne spores; type: cell-based, Bacillus anthracis Sterne; conditions: within 90 minutes
# [2] = system: B. anthracis Sterne vegetative cells; type: cell-based, Bacillus anthracis Sterne; conditions: 10 μg/mL, light-activated PE
# [3] = system: B. atrophaeus vegetative cells; type: cell-based, Bacillus atrophaeus; conditions: 10 μg/mL
# [4] = system: B. atrophaeus spores; type: cell-based, Bacillus atrophaeus
# [5] = Absorbance and fluorescence of −1C with AChE inhibitors without LaCh (aggregation control); type: physicochemical; conditions: 5 uM −1C with 5 ug/mL inhibitor, no LaCh
# Procedure: As shown in FIGS. 12A-C, it is clear that inhibition of AChE by several different inhibitors is apparent in the attenuated loss of fluorescence compared with the reference solution, with no inhibitor. […] FIGS. 13A-B illustrate (A) absorbance and (B) fluorescence (Ex: 370 nm) of 5 uM −1C with 5 ug/mL of either LaCh or one of the three AChE Inhibitors used in this study. […] Further, there is little overlap between the fluorescence of the TAE-1/IPE complex and that of the PE/LaCh complex.
# [6] = molecular target: T1, HEWL fibrils incubated for different lengths of time (Gallus gallus, UniProt P00698); assay: Fluorescence enhancement of dyes versus HEWL incubation time; type: binding, hen
# T1 construct: Lyophilized HEWL was dissolved at 10 mg/mL in 10 mM pH 3 sodium citrate buffer with 0.1 M NaCl; purchased Sigma-Aldrich; host or cells: hen egg white; fibrillised in house (pH 3, 70 °C, stirred)
# Procedure: Hen egg white lysozyme (HEWL) was used to form fibrillary amyloid aggregates for use in this study. […] For these experiments. HEWL (Sigma-Aldrich) was incubated at 70′C and a concentration of 350 μM in pH 3 sodium citrate buffer (10 mM) with 100 mM NaCl.
# A plot of normalized fluorescence enhancement for all four PEs and Thioflavin T with HEWL fibrils incubated for different lengths of time is shown in FIG. 15. PE1+ and PE2+ track amyloid formation in roughly the same way as ThT, showing a sigmoidal curve with onset of a logarithmic growth phase occurring at the same time, around 1 hour of incubation. The plateau phase, as monitored by fluorescence of any of those three PEs or ThT, appeared at 2 hours incubation.
# (§1) For studies of fluorescence enhancement vs. protein incubation time, dyes were mixed with protein sample in phosphate buffer (10 mM, pH 7.4) at equal monomer concentration of 10 μM in the wells of a standard 96-well plate. Emission spectra were obtained using top read with a SpectraMax M2e plate-reading spectrophotometer (Molecular Devices, Sunnyvale, CA). Experiments were performed in duplicate and errors are reported as standard deviation. For analysis of bound PE excitation and emission spectra and protein-PE energy transfer, PEs (500 nM) were mixed with protein sample (5 μM, monomer basis) in phosphate buffer and the solution transferred to a quartz, fluorometry cuvette. Spectra were obtained on a PTI QuantaMaster 40 steady state spectrofluorometer (HORIBA Scientific, Edison, NJ).
# [7] = Absorbance/fluorescence spectroscopy and fluorescence quantum yield (comparative method) of PEs and PE/substrate aggregates; type: physicochemical
# [8] = molecular target: T2, HEWL amyloids (Gallus gallus, UniProt P00698); assay: Excitation and emission spectra of PEs with HEWL amyloids; type: binding, hen; conditions: PE 500 nM, HEWL amyloid 5 μM monomer basis
# T2 construct: Lyophilized HEWL was dissolved at 10 mg/mL in 10 mM pH 3 sodium citrate buffer with 0.1 M NaCl; purchased Sigma-Aldrich; host or cells: hen egg white; fibrillised in house (pH 3, 70 °C, stirred)
# Procedure: Excitation and emission spectra of PEs in phosphate buffer alone, with monomeric HEWL and with HEWL amyloids (8 h incubated) are shown in FIGS. 18A-H, and relevant photophysical properties are summarized in Table 1. FIGS. 18A-H illustrate excitation (A, B, C, D) and emission (right; E, F, G. H) spectra of PEs (A, E: PE1+; B, F: PE1−; C, G: PE2+; D, H: PE3+) in phosphate buffer (PB, pH 7.4, 10 mM) alone (long dashed line) with HEWL monomers (short dashed line) and with HEWL amyloids (solid line); PE concentration: 500 nM, protein concentration: 5 μM monomer basis/0.25 mg/mL; emission and excitation wavelengths, respectively, were chosen as shown in Table 1 for each sample. A 10:1 molar ratio of protein to PE was used for these experiments. Absorbance spectra were taken, but background light scattering from insoluble amyloid aggregates made them difficult to interpret, so “fluorescence detected absorbance” in the form of excitation spectra was used instead. Normalized excitation and emission spectra, in which peak shifts and lineshape changes of spectra were somewhat easier to visualize, were used. […] PE1+ (FIG. 18E) had no change in wavelength or lineshape of emission spectrum, just a large increase in intensity when mixed with amyloids. The excitation spectra (FIGS. 18A, B, C, D) show a notable bathochromic shift for each PE in solution mixed with amyloid, of 23, 27, 35 and 29 nm for PE1+, PE2+, PE3+ and PE1−, respectively, observing only the low-energy band. The high-energy band, less relevant for imaging purposes, was also bathochromically shifted. […] PE1− had similar excitation spectrum (FIG. 18B) with monomer and amyloid, except for a large intensity difference.
# Lyophilized HEWL was dissolved at 10 mg/mL in 10 mM pH 3 sodium citrate buffer with 0.1 M NaCl. The solution was incubated in a 70C oil bath and magnetically stirred at 250 rpm for 12 h, and aliquots were withdrawn at half-hour intervals. […] Half of each aliquot was immediately diluted into pH 7.4 phosphate buffer to prevent further influence of acidic conditions and stored at 4C.
# as §1
# [9] = Photophysical properties of PEs alone (excitation/emission spectra, fluorescence yield); type: physicochemical
# Procedure: Excitation and emission spectra of PEs in phosphate buffer alone, with monomeric HEWL and with HEWL amyloids (8 h incubated) are shown in FIGS. 18A-H, and relevant photophysical properties are summarized in Table 1. FIGS. 18A-H illustrate excitation (A, B, C, D) and emission (right; E, F, G. H) spectra of PEs (A, E: PE1+; B, F: PE1−; C, G: PE2+; D, H: […]) alone (long dashed line) with HEWL monomers (short dashed line) and with HEWL amyloids (solid line); PE concentration: 500 nM, protein concentration: 5 μM monomer basis/0.25 mg/mL; emission and excitation wavelengths, respectively, were chosen as shown in Table 1 for each sample. A 10:1 molar ratio of protein to PE was used for these experiments. Absorbance spectra were taken, but background light scattering from insoluble amyloid aggregates made them difficult to interpret, so “fluorescence detected absorbance” in the form of excitation spectra was used instead. Normalized excitation and emission spectra, in which peak shifts and lineshape changes of spectra were somewhat easier to visualize, were used. […] PE1+ (FIG. 18E) had no change in wavelength or lineshape of emission spectrum, just a large increase in intensity when mixed with amyloids. The excitation spectra (FIGS. 18A, B, C, D) show a notable bathochromic shift for each PE in solution mixed with amyloid, of 23, 27, 35 and 29 nm for PE1+, PE2+, PE3+ and PE1−, respectively, observing only the low-energy band. The high-energy band, less relevant for imaging purposes, was also bathochromically shifted. […] PE1− had similar excitation spectrum (FIG. 18B) with monomer and amyloid, except for a large intensity difference.
# as §1
# [10] = molecular target: T3, HEWL monomers (Gallus gallus, UniProt P00698); assay: Fluorescence interaction of PEs with HEWL monomers; type: binding, hen; conditions: HEWL monomers 5 μM/0.25 mg/mL
# T3 construct: Hen egg white lysozyme and Thioflavin T were obtained from Sigma-Aldrich Chemical Company; purchased Sigma-Aldrich; host or cells: hen egg white
# Procedure: Excitation and emission spectra of PEs in phosphate buffer alone, with monomeric HEWL and with HEWL amyloids (8 h incubated) are shown in FIGS. 18A-H, and relevant photophysical properties are summarized in Table 1. FIGS. 18A-H illustrate excitation (A, B, C, D) and emission (right; E, F, G. H) spectra of PEs (A, E: PE1+; B, F: PE1−; C, G: PE2+; D, H: PE3+) in phosphate buffer (PB, pH 7.4, 10 mM) alone (long dashed line) with HEWL monomers (short dashed line) and with HEWL amyloids (solid line); PE concentration: 500 nM, protein concentration: 5 μM monomer basis/0.25 mg/mL; emission and excitation wavelengths, respectively, were chosen as shown in Table 1 for each sample. […] Absorbance spectra were taken, but background light scattering from insoluble amyloid aggregates made them difficult to interpret, so “fluorescence detected absorbance” in the form of excitation spectra was used instead. […]
# [formula] where x is PE concentration (with protein concentration fixed), y is PE fluorescence intensity. […] Fits to the data for the three cationic PEs produced Fmax values close to the observed saturation value, and the other two parameters are reported as calculated. […]
# For studies of fluorescence enhancement vs. protein incubation time, dyes were mixed with protein sample in phosphate buffer (10 mM, pH 7.4) at equal monomer concentration of 10 μM in the wells of a standard 96-well plate. […]
# [11] = molecular target: T4, HEWL amyloid fibrils (Gallus gallus, UniProt P00698); assay: Induced circular dichroism of PE-amyloid complexes; type: binding, hen; conditions: PEs 10 μM, HEWL 10 μM monomer basis
# T4 construct: Lyophilized HEWL was dissolved at 10 mg/mL in 10 mM pH 3 sodium citrate buffer with 0.1 M NaCl; purchased Sigma-Aldrich; host or cells: hen egg white; fibrillised in house (pH 3, 70 °C, stirred)
# Procedure: Circular dichroism measurements were performed to determine if the intrinsic chirality of the HEWL fibrils was transferred to the PE chromophore by a chiral backbone twist or an “excitonic” chiral supramolecular aggregate. CD spectroscopy (CPEs in PB with HEWL monomer and with HEWL amyloid; performed for (a): PE1+; (b): PE1−; (c): PE2+; (d): PE3+; PEs 10 μM, HEWL 10 μM monomer basis/0.5 mg/mL) indicated induced circular dichroism of PEs when bound to HEWL amyloids. As expected, no PE had optical activity by itself in phosphate buffer solution and none of the PEs had any CD with HEWL monomer, including PE1−. […] PE2+ and PE3+ gave rise to similar CD spectra, with more intense bands in the spectrum for PE3+.
# PEs and protein samples were diluted in phosphate buffer, gently vortexed, and read in a 1 mm pathlength quartz CD cuvette using an Aviv 410 CD spectrometer (Aviv Biomedical, Lakewood, NJ), 15 s averaging time. A blank spectrum (PB only) was subtracted from each sample to remove background activity. Error bars are standard deviation over multiple reads of a single sample as reported by the instrument.
# [12] = phosphate buffer pH 7.4, 10 mM, PE 500 nM
# T2 sequence (P00698 19-147): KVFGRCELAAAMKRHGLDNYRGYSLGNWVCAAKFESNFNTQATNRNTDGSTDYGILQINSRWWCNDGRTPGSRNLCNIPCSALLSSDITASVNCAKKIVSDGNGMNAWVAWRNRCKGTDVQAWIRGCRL
# T1 sequence (P00698 19-147): as above
# T4 sequence (P00698 19-147): as above
# T3 sequence (P00698 19-147): as above
smiles,measurement,setting,value
"C[N+](C)(C)CCOc1ccc(C#CC2=CC=C(C#Cc3ccc(OCC[N+](C)(C)C)cc3)C2)cc1.I [EO-PE (Th,C2)]",killing of spores,"[1]; 20 ng PE/spore, light-activated PE",99%
same,spores induced to germinate,[1]; absence of UVA light,81%
same,spores not killed that germinate into viable colony-forming vegetative cells (of all spores),[1]; absence of UVA light,72%
same,log reduction of vegetative cells,[2]; within 30 minutes,~4 log
same,log reduction of vegetative cells,[2]; within 90 minutes,5 log
same,cell death,"[3]; 1 hour, light-activated (UVA)",99%
same,uptake of PI relative to untreated cells,"[3]; 1 hr, dark",increased tenfold
same,cells killed,"[3]; 1 hr, in the absence of light",73%
same,effect of increasing PE concentration on death or germination of spores,[4],no increased effect
same,spores in which the water influx event progressed to stain uptake matching vegetative cells (germination),[4],39%
same,spores still fluorescing like untreated spores (S gate),[4],61%
same,spores that successfully germinate,[4],15%
"COc1ccc(C(=O)NCc2ccc(OCCN(C)C)cc2)cc1OC [Itopride, N-[[4-[2-(Dimethylamino)ethoxy]phenyl]methyl]-3,4-dimethoxy benzamidehydrochloride]",aggregation induced with −1C,[5],no significant aggregation
"CCC1(c2cccc(O)c2)CCCCN(C)C1.Cl (stereo not shown) [Meptazinol, 3-(3-ethylhexahydro-1-methyl-1H-azepin-3-yl)-phenol hydrochloride]",aggregation induced with −1C,[5],no significant aggregation
CCOC(=O)c1ccc(C#Cc2cc(OCCS(=O)(=O)O)c(C#Cc3ccc(C(=O)OCC)cc3)cc2OCCS(=O)(=O)O)cc1 [PE1−],fluorescence enhancement with monomeric species versus amyloid,"[6]; equimolar concentrations, 10 μM",greater fluorescence enhancement when mixed with monomeric species than with amyloid
same,"enhancement of fluorescence quantum yield, LaCh complex versus PE alone",[7]; 5 uM PE with 32 uM LaCh,66 times
same,fluorescence quantum yield of aggregate with LaCh,[7]; 5 uM PE with 32 uM LaCh,0.991
same,centre of structured emission upon aggregation with substrate,"[7]; +2C with DLPG, −1C with LaCh",442 nm
same,"fluorescence quantum yield, PE alone","[7]; in water, corrected value of this study",0.015
same,"bathochromic shift of excitation spectrum, low-energy band, with amyloid",[8],29 nm
same,λem (PB w/ HEWL),[8]; PB,439 nm
same,"λex (PB w/HEWL), high-energy band",[8]; PB,327 nm
same,"λex (PB w/HEWL), low-energy band",[8]; PB,399 nm
same,λem (H2O),[9]; H2O,454 nm
same,λem (PB),[9]; phosphate buffer,454 nm
same,"λex (PB), high-energy band",[9]; [12],314 nm
same,"λex (PB), low-energy band",[9]; [12],370 nm
same,binding to HEWL monomers,[10],linear and non-saturable
same,induced circular dichroism with HEWL amyloid,[11],strong induced CD with a negative Cotton effect
C[N+](C)(C)CCOC(=O)c1ccc(Oc2nc(Oc3ccc(C(=O)OCC[N+](C)(C)C)cc3)nc(Oc3ccc(C(=O)OCC[N+](C)(C)C)cc3)n2)cc1.[I-].[I-].[I-] [TAE-1],aggregation induced with −1C,[5],red-shifted absorbance and a strongly red-shifted and broadened green fluorescence
"Cc1ccc2c(c1)sc(-c1ccc(N(C)C)cc1)[n+]2C.[Cl-] [ThT, Thioflavin T, reference compound]",HEWL incubation time at which the plateau phase of fluorescence enhancement appears,"[6]; dye 10 μM, HEWL 10 μM monomer basis",2 h
